Tests used:
Assay type in all cases: in vivo
Zea mays = assay: Test Example 4: effect on crop by application to foliage (diluvial soil, plastic box); conditions: foliage application, 320 g/ha
In short: (§1)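 Seeds sown in sterilized diluvial soil, covered ~1.5 cm, grown 14 days in greenhouse at 25° C. to 30° C. Emulsion formulation diluted in water to set rate (g/ha) and sprayed onto stems and leaves. Effect scored visually 3 weeks later on 0–5 scale (5 = ≥90% herbicidal ratio, 0 = ≤5%).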

[1] = test system: Beta vulgaris ssp. vulgaris; assay: as above; conditions: foliage application, 320 g/ha
In short: as §1

Triticum aestivum = assay: as above; conditions: foliage application, 320 g/ha
In short: as §1

Brassica campestris L. = assay: as above; conditions: foliage application, 320 g/ha
In short: as §1

[2] = test system: directly sowed Oryza sativa; assay: as above; conditions: foliage application, 320 g/ha
In short: as §1

Glycine max = assay: as above; conditions: foliage application, 320 g/ha
In short: as §1

[3] = test system: Echinochloa oryzacola Vasing.; assay: Test Example 1: herbicidal activity, application before weed generation in submerged conditions; conditions: Application herbicide amount 320 g/ha; Seventeenth Table
In short: (§2)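 Pre-emergence water-surface application under 4 cm flooding, same day as sowing, with rice transplanted at 2.5 leaf stage. Dose given as g/ha. Plants grown at 25° C. to 30° C. and rated three weeks later on a 0 (≤5%) to 5 (≥90%) herbicidal-ratio scale.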

Monochoria vaginalis = assay: as above; conditions: Application herbicide amount 320 g/ha; Seventeenth Table
In short: as §2

Scirpus juncoides = assay: as above; conditions: Application herbicide amount 320 g/ha; Seventeenth Table
In short: as §2

Structure (SMILES)	b (Zea mays) effect on crop grade (Zea mays)	f (Beta vulgaris ssp. vulgaris) effect on crop grade [1]	e (Triticum aestivum) effect on crop grade (Triticum aestivum)	g (Brassica campestris L.) effect on crop grade (Brassica campestris L.)	d (directly sowed Oryza sativa) effect on crop grade [2]	c (Glycine max) effect on crop grade (Glycine max)	A: Echinochloa oryzicola Vasing. (herbicidal effect grade) [3]	C: Monochoria vaginalis (herbicidal effect grade) (Monochoria vaginalis)	B: Scirpus juncoides (herbicidal effect grade) (Scirpus juncoides)
CCC[S+]([O-])c1nnc2c(C(=O)Nc3nnnn3C)ccc(C(F)(F)F)n12 (stereo not drawn) [2-069]	5 (Herbicidal ratio of 90% or more (almost completely withered))	5 (Herbicidal ratio of 90% or more (almost completely withered))	3 (Herbicidal ratio of 40% or more and less than 70%)	5 (Herbicidal ratio of 90% or more (almost completely withered))	4 (Herbicidal ratio of 70% or more and less than 90%)	4 (Herbicidal ratio of 70% or more and less than 90%)	5 (Herbicidal ratio of 90% or more (almost completely withered))	5 (Herbicidal ratio of 90% or more (almost completely withered))	5 (Herbicidal ratio of 90% or more (almost completely withered))
CCCS(=O)(=O)c1nnc2c(C(=O)Nc3nnnn3C)ccc(C(F)(F)F)n12 [2-070]	3 (Herbicidal ratio of 40% or more and less than 70%)	5 (Herbicidal ratio of 90% or more (almost completely withered))	4 (Herbicidal ratio of 70% or more and less than 90%)	5 (Herbicidal ratio of 90% or more (almost completely withered))	3 (Herbicidal ratio of 40% or more and less than 70%)	4 (Herbicidal ratio of 70% or more and less than 90%)	5 (Herbicidal ratio of 90% or more (almost completely withered))	5 (Herbicidal ratio of 90% or more (almost completely withered))	5 (Herbicidal ratio of 90% or more (almost completely withered))
CC(C)CSc1nnc2c(C(=O)Nc3nnnn3C)ccc(C(F)(F)F)n12 [2-071]	1 (Herbicidal ratio of 5% or more and less than 20%)	5 (Herbicidal ratio of 90% or more (almost completely withered))	1 (Herbicidal ratio of 5% or more and less than 20%)	4 (Herbicidal ratio of 70% or more and less than 90%)	3 (Herbicidal ratio of 40% or more and less than 70%)	2 (Herbicidal ratio of 20% or more and less than 40%)	5 (Herbicidal ratio of 90% or more (almost completely withered))	5 (Herbicidal ratio of 90% or more (almost completely withered))	5 (Herbicidal ratio of 90% or more (almost completely withered))
CCC(C)Sc1nnc2c(C(=O)Nc3nnnn3C)ccc(C(F)(F)F)n12 (stereo not drawn) [2-072]	1 (Herbicidal ratio of 5% or more and less than 20%)	5 (Herbicidal ratio of 90% or more (almost completely withered))	1 (Herbicidal ratio of 5% or more and less than 20%)	4 (Herbicidal ratio of 70% or more and less than 90%)	4 (Herbicidal ratio of 70% or more and less than 90%)	3 (Herbicidal ratio of 40% or more and less than 70%)	5 (Herbicidal ratio of 90% or more (almost completely withered))	5 (Herbicidal ratio of 90% or more (almost completely withered))	5 (Herbicidal ratio of 90% or more (almost completely withered))

Reference: US9708314B2, “Heterocyclic amide compound” (NISSAN CHEMICAL INDUSTRIES, LTD., priority 2013, dated 2017)
